Experimental data as given in patent US11365450B2, “Group classification and prognosis prediction system based on biological characteristics of gastric cancer” (Novomics Co., Ltd., priority 2017, dated 2022).
“Also recorded” adds a separate entry of the source.

Columns and labels:
Format in all cases: cell-based, Human
[1] = system: Hs746T cells; assay: in vitro tumor spheroid formation assay; conditions: LY2157299 50 μM; 30 days of cell culture
Method: Tumor spheroid formation assay: Ten cells were cultured in 50 μl of DMEM/F12 (Gibco) supplemented with bFGF, EGF, B27, 10% FBS, and 1% antibiotics in a 96-well plate. After 30 days of cell culture, the number of tumor spheroids in each well was counted. In addition, LY2157299 (50 μM) was administered to examine the effect of the TGF-β inhibitor on tumor sphere formation.

[2] = system: Hs746T cells; assay: invasion assay (HUVEC monolayer transwell); conditions: LY2157299 50 μM; 48 hours incubation
Method: Invasion assay: For the assay, 2×10^4 HUVEC cells were placed in a culture medium (M199) in a fibronectin-coated transwell, followed by coating the bottom of the transwell with 0.2% gelatin and cell culture for 48 hours until monolayer formation. Thereafter, 1×10^5/50 μl Hs746T and NCI-N87 cells containing FBS-free CellTracker™ (Molecular Probes, C2925) were separately added to the transwell. A culture medium containing 10% FBS was added to the lower chamber. After incubation for 48 hours, upper cells of the membrane were removed using a cotton swab. Cells on the lower membrane were lysed in 200 μl of a lysis buffer at room temperature for 2 hours to 3 hours. Fluorescence was measured with Ex/Em 492/517. To examine the effect of a TGF-β inhibitor on cell invasion ability, 50 μM of LY2157299 (AdooQ, California, USA) was administered.

[3] = system: Hs746T cells; assay: in vitro scratch wound-healing (migration) assay; conditions: LY2157299 50 μM; wound width after 72 hours
Method: Migration assay: Hs746T and NCI-N87 cells were grown into monolayers in a culture medium containing 10% FBS and 1% antibiotics. When confluency reached 70%, the cell monolayers were scratched with a 100-μl pipette tip. After 72 hours, the wound width was measured and normalized by the wound width measured immediately after scratching. LY2157299 (50 μM) was administered to evaluate the effect of the TGF-β inhibitor on cell migration.

Cc1cccc(-c2nn3c(c2-c2ccnc4ccc(C(N)=O)cc24)CCC3)n1 [LY2157299]
delayed; also recorded: suppression: 3D spheroid formation ability of Hs746T cells [1] | invasion ability of Hs746T cells [2] | wound-healing ability of Hs746T cells [3]
